Measured values published in paper PMC4629899, “Structural and Enzymatic Characterization of a Nucleoside Diphosphate Sugar Hydrolase from Bdellovibrio bacteriovorus” (PLoS ONE, 2015).

Tests used:
Bd-NDPSase (Bd3179) [1] = target: T1, Bd-NDPSase (Bd3179) (Bdellovibrio bacteriovorus, UniProt Q6MIH8, E140Q); test: X-ray crystal structure, […] A (soak); type: binding; settings: crystals soaked in 5 mM ADPR for 2 days; catalytically inactive mutant; active site, no metal added
T1 construct: gene nudF; gene cloned from HD100 chromosomal DNA into pET24a, expressed in E. coli BL21 (DE3); conventional purification, no tag mentioned; homodimer, residues numbered to 182
T1 sequence (Q6MIH8 entry or part of it E140Q): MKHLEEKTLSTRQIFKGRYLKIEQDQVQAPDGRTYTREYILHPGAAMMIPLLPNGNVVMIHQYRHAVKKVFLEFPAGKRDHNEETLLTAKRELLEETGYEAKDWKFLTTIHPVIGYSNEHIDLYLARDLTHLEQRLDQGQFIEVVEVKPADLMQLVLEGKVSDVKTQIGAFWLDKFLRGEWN

Bd-NDPSase (Bd3179) [2] = target: T1, Bd-NDPSase (Bd3179); test: X-ray crystal structure, […] A; type: binding; settings: from crystals with 5 mM UDP-glucose (co-crystallization per methods, soak per results); active site, shifted toward phosphate position
[3] = substrate: Nc1nc2c(ncn2[C@@H]2O[C@H](COP(=O)(O)OP(=O)(O)O[C@H]3O[C@H](CO)[C@@H](O)[C@H](O)[C@@H]3O)[C@@H](O)[C@H]2O)c(=O)[nH]1; test: phosphate release assay (Ames, coupled to calf intestinal phosphatase); type: biochemical, Bdellovibrio bacteriovorus; settings: 5 mM MgCl2, 50 mM Tris-HCl pH 8.6, 1 mM EDTA
Description: phosphate release assay (Ames, coupled to calf intestinal phosphatase) on Bd-[…]

Molecule: Nc1ncnc2c1ncn2[C@@H]1O[C@H](COP(=O)(O)OP(=O)(O)OC[C@H]2OC(O)[C@H](O)[C@@H]2O)[C@@H](O)[C@H]1O (stereo partly shown) [ADPR, ADP-ribose]
- X-ray crystal structure, 2.06 A (soak) (Bd-NDPSase (Bd3179) [1]): E140Q Bd-NDPSase in complex with ADP-ribose (PDB ID 5C7T)

Molecule: OC[C@H]1OC(O)[C@H](O)[C@@H](O)[C@@H]1O (stereo partly shown) [glucose]
- X-ray crystal structure, 1.80 A (Bd-NDPSase (Bd3179) [2]): E140Q Bd-NDPSase in complex with glucose (PDB ID 5C8L)

B1: Bd-NDPSase (Bd3179) (Bdellovibrio bacteriovorus HD100) (protein)
chain: MKHLEEKTLSTRQIFKGRYLKIEQDQVQAPDGRTYTREYILHPGAAMMIPLLPNGNVVMIHQYRHAVKKVFLEFPAGKRDHNEETLLTAKRELLEETGYEAKDWKFLTTIHPVIGYSNEHIDLYLARDLTHLEQRLDQGEFIEVVEVKPADLMQLVLEGKVSDVKTQIGAFWLDKFLRGEWN
notes: gene cloned from HD100 chromosomal DNA into pET24a, expressed in E. coli BL21 (DE3); conventional purification, no tag mentioned; homodimer, residues numbered to 182
- Km [3]: 300 µM
- kcat [3]: 5200 s⁻¹
